For orientation: Ki means a measure of affinity in units of concentration, obtained from inhibition or displacement.

Molecules are shown by their SMILES.

In one assay the target is T1, human glucocorticoid receptor protein (GR) (Homo sapiens, UniProt P04150).
T1 construct: made in house; host or cells: Spodoptera frugiperda Sf21 insect cells (baculovirus)
T1 sequence (P04150 1-777): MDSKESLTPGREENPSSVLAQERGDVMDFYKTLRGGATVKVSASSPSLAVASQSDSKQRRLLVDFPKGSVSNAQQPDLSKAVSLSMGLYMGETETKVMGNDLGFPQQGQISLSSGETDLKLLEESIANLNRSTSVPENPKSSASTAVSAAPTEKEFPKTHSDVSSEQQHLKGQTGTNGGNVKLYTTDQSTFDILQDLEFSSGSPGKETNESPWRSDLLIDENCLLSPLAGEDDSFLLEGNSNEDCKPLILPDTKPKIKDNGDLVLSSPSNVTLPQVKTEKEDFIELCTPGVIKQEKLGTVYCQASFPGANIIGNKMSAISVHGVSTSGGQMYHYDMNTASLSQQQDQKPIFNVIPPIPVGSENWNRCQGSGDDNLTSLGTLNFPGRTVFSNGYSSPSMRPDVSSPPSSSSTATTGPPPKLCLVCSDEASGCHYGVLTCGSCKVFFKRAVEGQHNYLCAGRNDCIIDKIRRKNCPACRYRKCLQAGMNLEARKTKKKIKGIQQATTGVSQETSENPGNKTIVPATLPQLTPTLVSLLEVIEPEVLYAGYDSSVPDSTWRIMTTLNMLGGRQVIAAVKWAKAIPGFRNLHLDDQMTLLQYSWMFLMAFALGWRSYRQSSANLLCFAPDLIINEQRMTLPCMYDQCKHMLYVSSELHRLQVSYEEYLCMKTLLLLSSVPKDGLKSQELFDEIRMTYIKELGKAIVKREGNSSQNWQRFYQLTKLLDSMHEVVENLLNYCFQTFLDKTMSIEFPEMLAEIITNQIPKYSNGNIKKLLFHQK
Nature of the assay: Glucocorticoid receptor binding assay ([3H]dexamethasone competition, GR lysate).
Settings: not given
The method, then:
A baculovirus expression plasmid containing cDNA encoding the human glucocorticoid receptor protein (GR) was prepared using standard techniques. […] That expression plasmid was co-transfected together with wild type Autographa californica multiple nuclear polyhedrosis virus DNA into Spodopter frugiperda-21 (Sf-21) cells to generate recombinant virus containing GR cDNA. See e.g., O'Reilly, D. R., Miller, L. K., Luckow, V. A., Regulation of expression of a baculovirus ecdysteroid UDP glucosyltransferase gene. […] That recombinant virus containing GR cDNA was collected.
A suspension culture of uninfected Sf21 cells was grown to a density of 1.2×10^6 cells/ml and then infected with the recombinant virus containing GR cDNA at a multiplicity of infection of 2. Those infected Sf21 cells were incubated for 48 hours and then collected by centrifugation at 1000×g for 10 minutes at 4° C. The resulting cell pellets were resuspended in lysis buffer (50 mM Potassium Phosphate buffer, pH 7.0, 10 mM Monothioglycerol, 5 mM DTT, 20 mM Sodium Molybdate, 1 mM PMSF, 1 μg/mL aprotinin, and 10 μg/mL leupeptin) and incubated for 15 minutes on ice. Those resuspended cell pellets were homogenized using a Dounce homogenizer and a B pestle. A volume of 2 M KCl was added to the homogenized cell pellets to a final concentration of 0.4 M. The resulting GR lysates were centrifuged at 100,000×g for 60 min at 4° C. and stored for use in binding assays.
Binding assay samples were prepared in separate mini-tubes in a 96-well format at 4° C. Each binding assay sample was prepared in a volume of 250 μL of Assay Buffer (10% glycerol, 25 mM sodium phosphate, 10 mM potassium fluoride, 10 mM sodium molybdate, 0.25 mM CHAPS, 2 mM DTT and 1 mM EDTA, (adjusted to pH 7.5)) containing 50 μg of GR lysate; 2-4 nM of [^3H]dexamethasone at 84 Ci/mmol; and either a reference compound or a test compound. […] Each reference compound and test compound was assayed at varying concentrations, ranging from 0 to 10^−5 M. Each concentration of each reference compound and each test compound was assayed in triplicate. The assay samples were incubated for 16 hours at 4° C.
The assay samples were then centrifuged and the supernatants were discarded. The resulting pellets were washed twice with assay buffer lacking DTT. Radioactivity in counts per minute (CPM) of each washed pellet was determined by liquid scintillation counter (MicroBeta™, Wallach).
Specific binding for a particular sample was calculated using the equation: (Sample CPM)−(Average Non-specific CPM)
Average Non-specific CPM was defined as the amount of radioactivity from samples containing an excess (i.e. 1000 nM) of unlabeled dexamethasone. […] Ki values were determined using the Cheng-Prusoff equation using a previously determined Kd value for dexamethasone: Ki=IC50/(1+[L]/Kd)
[L]=concentration of labeled dexamethasone
Kd=dissociation constant of labeled dexamethasone
The molecule `COc1c(O)ccc2c1-c1ccc3c(c1/C(=C/c1oc(C)cc1C(=O)N(C)C)O2)C(C)=CC(C)(C)N3` [Compound 146, (Z)-5-(2′-(3′-dimethylaminocarbonyl-5H-methylfuranylmethylidene))-1,2-dihydro-9-hydroxy-10-methoxy-2,2,4-trimethyl-5H-chromeno[3,4-f]quinoline] displayed a Ki above 3 nM.

Turning to `COc1c(O)ccc2c1-c1ccc3c(c1/C(=C/c1ccccc1F)O2)C(C)=CC(C)(C)N3` [Compound 12, (Z)-5-(2′-fluorobenzylidene)-1,2-dihydro-9-hydroxy-10-methoxy-2,2,4-trimethyl-5H-chromeno[3,4-f]quinoline], the Ki was below 1 nM.

The molecule `COc1c(O)ccc2c1-c1ccc3c(c1/C(=C/c1cccc(C(F)(F)F)c1)O2)C(C)=CC(C)(C)N3` [Compound 11, (Z)-5-(3′-trifluoromethylbenzylidene)-1,2-dihydro-9-hydroxy-10-methoxy-2,2,4-trimethyl-5H-chromeno[3,4-f]quinoline] showed an inhibition constant Ki of 1 to 2 nM.

The same assay, now with this note: competition with 2-4 nM [3H]dexamethasone, 16 hours at 4° C., Cheng-Prusoff; read-out: Ki.
For `COc1c(O)ccc2c1-c1ccc3c(c1/C(=C/c1sccc1C(=O)N(C)C)O2)C(C)=CC(C)(C)N3` [Compound 132, (Z)-5-(2′-(3′-(dimethylaminocarbonyl)thienylmethylidene))-1,2-dihydro-9-hydroxy-10-methoxy-2,2,4-trimethyl-5H-chromeno[3,4-f]quinoline], the inhibition constant Ki was in the range of 1 to 2 nM.

For the molecule `COc1c(O)ccc2c1-c1ccc3c(c1/C(=C/c1ccccc1C#N)O2)C(C)=CC(C)(C)N3` [Compound 107, (Z)-5-(2′-cyanobenzylidene)-1,2-dihydro-9-hydroxy-10-methoxy-2,2,4-trimethyl-5H-chromeno[3,4-f]quinoline], the Ki is below 1 nM.

For `CCN(CC)C(=O)c1ccccc1/C=C1\Oc2ccc(O)c(OC)c2-c2ccc3c(c21)C(C)=CC(C)(C)N3` [Compound 75, (Z)-5-(2′-diethylaminocarbonylbenzylidene)-1,2-dihydro-9-hydroxy-10-methoxy-2,2,4-trimethyl-5H-chromeno[3,4-f]quinoline], the inhibitory constant (Ki) was below 1 nM.

With `COc1c(O)ccc2c1-c1ccc3c(c1/C(=C/c1cccc4ccccc14)O2)C(C)=CC(C)(C)N3` [Compound 111, (Z)-5-(1′-naphthylmethylidene)-1,2-dihydro-9-hydroxy-10-methoxy-2,2,4-trimethyl-5H-chromeno[3,4-f]quinoline], the inhibition constant Ki is above 3 nM.

On to `COc1c(O)ccc2c1-c1ccc3c(c1/C(=C/c1ccccc1CO)O2)C(C)=CC(C)(C)N3` [Compound 159, (Z)-5-(2′-Hydroxymethylbenzylidene)1,2-dihydro-9-hydroxy-10-methoxy-2,2,4-trimethyl-5H-chromeno[3,4-f]quinoline], for which the Ki was 1 to 2 nM.

On to `C=CCC(O)c1ccsc1C=C1Oc2ccc(O)c(OC)c2-c2ccc3c(c21)C(C)=CC(C)(C)N3` (single isomer, unassigned; (-)) [Compound 201, (−)-(Z)-5-(2′-(3′-(1″-Hydroxybut-3″-enyl)thienylmethylidene))1,2-dihydro-9-hydroxy-10-methoxy-2,2,4-trimethyl-5H-chromeno[3,4-f]quinoline], for which the Ki lay in the range of 1 to 2 nM.

For the molecule `COc1c(O)ccc2c1-c1ccc3c(c1/C(=C/c1cc(Cl)ccc1Cl)O2)C(C)=CC(C)(C)N3` [Compound 14, (Z)-5-(2′,5′-dichlorobenzylidene)-1,2-dihydro-9-hydroxy-10-methoxy-2,2,4-trimethyl-5H-chromeno[3,4-f]quinoline], the Ki lay in the range of 2 to 3 nM.

Regarding `COc1cccc(/C=C2\Oc3ccc(O)c(OC)c3-c3ccc4c(c32)C(C)=CC(C)(C)N4)c1` [Compound 15, (Z)-5-(3′-methoxybenzylidene)-1,2-dihydro-9-hydroxy-10-methoxy-2,2,4-trimethyl-5H-chromeno[3,4-f]quinoline], the Ki is below 1 nM.

Turning to `CCNC(=O)c1ccsc1/C=C1\Oc2ccc(O)c(OC)c2-c2ccc3c(c21)C(C)=CC(C)(C)N3` [Compound 249, (Z)-5-(2′-(3′-Ethylcarbamoylthienylmethylidene))1,2-dihydro-9-hydroxy-10-methoxy-2,2,4-trimethyl-5H-chromeno[3,4-f]quinoline], the inhibitory constant (Ki) was 1 to 2 nM.

Consider `COc1c(O)ccc2c1-c1ccc3c(c1/C(=C/c1ccc(C(=O)N4CCCC4)s1)O2)C(C)=CC(C)(C)N3` [Compound 143, (Z)-5-(2′-(5′-(pyrrolidinocarbonyl)thienylmethylidene))-1,2-dihydro-9-hydroxy-10-methoxy-2,2,4-trimethyl-5H-chromeno[3,4-f]quinoline], for which the Ki lay in the range of 1 to 2 nM.

Consider `COc1c(O)ccc2c1-c1ccc3c(c1/C(=C/c1sccc1CN(C)C)O2)C(C)=CC(C)(C)N3` [Compound 166, (Z)-5-(2′-(3′-(Dimethylaminomethyl)thienylmethylidene))1,2-dihydro-9-hydroxy-10-methoxy-2,2,4-trimethyl-5H-chromeno[3,4-f]quinoline], for which the inhibition constant Ki was 2 to 3 nM.

`C=CCO/N=C(/C)c1ccsc1/C=C1\Oc2ccc(O)c(OC)c2-c2ccc3c(c21)C(C)=CC(C)(C)N3` [Compound 179, (Z)-5-(2′-(3′-((Z)-1″-Allyloxyiminoethyl)thienylmethylidene))1,2-dihydro-9-hydroxy-10-methoxy-2,2,4-trimethyl-5H-chromeno[3,4-f]quinoline]: the Ki is 1 to 2 nM.

In the case of `COc1c(O)ccc2c1-c1ccc3c(c1/C(=C/c1sccc1C(=O)c1ccsc1)O2)C(C)=CC(C)(C)N3` [Compound 215, (Z)-5-(2′-(3′-(Thien-3″-ylcarbonyl)thienylmethylidene))1,2-dihydro-9-hydroxy-10-methoxy-2,2,4-trimethyl-5H-chromeno[3,4-f]quinoline], the Ki is 1 to 2 nM.

As to `COc1c(O)ccc2c1-c1ccc3c(c1/C(=C/c1ccccc1C(=O)N1CCCC1)O2)C(C)=CC(C)(C)N3` [Compound 90, (Z)-5-(2′-(pyrrolidinecarbonyl)benzylidene)-1,2-dihydro-9-hydroxy-10-methoxy-2,2,4-trimethyl-5H-chromeno[3,4-f]quinoline], the inhibition constant Ki was below 1 nM.

Turning to `CC#CCOCc1ccsc1/C=C1\Oc2ccc(O)c(OC)c2-c2ccc3c(c21)C(C)=CC(C)(C)N3` [Compound 237, (Z)-5-(2′-(3′-(But-2″-ynloxymethyl)thienylmethylidene))1,2-dihydro-9-hydroxy-10-methoxy-2,2,4-trimethyl-5H-chromeno[3,4-f]quinoline], the inhibitory constant (Ki) is 1 to 2 nM.

For the molecule `C=CCO/N=C(\C)c1ccsc1/C=C1\Oc2ccc(O)c(OC)c2-c2ccc3c(c21)C(C)=CC(C)(C)N3` [Compound 178, (Z)-5-(2′-(3′-((E)-1″-Allyloxyiminoethyl)thienylmethylidene))1,2-dihydro-9-hydroxy-10-methoxy-2,2,4-trimethyl-5H-chromeno[3,4-f]quinoline], the Ki fell in the range of 1 to 2 nM.

As to `COc1c(O)ccc2c1-c1ccc3c(c1/C(=C/c1cccc(OCCF)c1)O2)C(C)=CC(C)(C)N3` [Compound 86, (Z)-5-(3′-(2″-fluoroethoxy)benzylidene)-1,2-dihydro-9-hydroxy-10-methoxy-2,2,4-trimethyl-5H-chromeno[3,4-f]quinoline], the Ki is 1 to 2 nM.

(Values after US20090105292A9, “Glucocorticoid Receptor Modulator Compounds and Methods” (LIGAND PHARMACEUTICALS INCORPORATED, priority 2004, published 2009).)
